Results taken from PMC3968014, “Design and Synthesis of a Library of Lead-Like 2,4-Bisheterocyclic Substituted Thiophenes as Selective Dyrk/Clk Inhibitors” (PLoS ONE, 2014).
Where “and” joins values, the source holds several entries; their conditions need not be identical. Equal entries are not always repeated. Where two headings read alike, the source gives them in different places.

What was measured:
HIPK1 = target: T1, HIPK1 (Homo sapiens, UniProt Q86Z02); assay: Selectivity panel HIPK1; format: biochemical; conditions: 5 µM inhibitor
T1 construct: purchased Life Technologies (Invitrogen SelectScreen); Dyrk1A, Dyrk2 and CK2α in-house or gifts

MST1 (STK4) = target: T2, MST1 (STK4) (Homo sapiens, UniProt Q13043); assay: Selectivity panel MST1; format: biochemical; conditions: 5 µM inhibitor
T2 construct: purchased Life Technologies (Invitrogen SelectScreen); Dyrk1A, Dyrk2 and CK2α in-house or gifts
T2 sequence (Q13043 1-487): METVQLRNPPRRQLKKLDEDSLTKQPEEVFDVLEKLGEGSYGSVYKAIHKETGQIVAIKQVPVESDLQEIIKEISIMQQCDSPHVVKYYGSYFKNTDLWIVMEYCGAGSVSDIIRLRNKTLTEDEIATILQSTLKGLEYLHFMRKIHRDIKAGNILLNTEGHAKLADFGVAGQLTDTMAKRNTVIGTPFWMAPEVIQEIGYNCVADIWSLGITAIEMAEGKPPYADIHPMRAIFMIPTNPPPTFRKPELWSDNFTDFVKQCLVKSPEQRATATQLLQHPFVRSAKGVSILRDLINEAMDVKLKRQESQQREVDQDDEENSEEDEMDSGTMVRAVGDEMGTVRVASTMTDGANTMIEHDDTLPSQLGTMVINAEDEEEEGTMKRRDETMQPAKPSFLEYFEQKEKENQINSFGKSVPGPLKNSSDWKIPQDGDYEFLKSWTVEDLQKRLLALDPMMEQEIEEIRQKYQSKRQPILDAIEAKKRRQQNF

CaMK1 = target: T3, CaMK1 (Homo sapiens, UniProt Q14012); assay: Selectivity panel CaMK1; format: biochemical; conditions: 5 µM inhibitor
T3 construct: purchased Life Technologies (Invitrogen SelectScreen); Dyrk1A, Dyrk2 and CK2α in-house or gifts

PKCβ = target: T4, PKCβ (Homo sapiens, UniProt P05771); assay: Selectivity panel PKCβ; format: biochemical; conditions: 5 µM inhibitor
T4 construct: purchased Life Technologies (Invitrogen SelectScreen); Dyrk1A, Dyrk2 and CK2α in-house or gifts

Clk3 = target: T5, Clk3 (Homo sapiens, UniProt P49761); assay: Selectivity panel Clk3; format: biochemical; conditions: 5 µM inhibitor
T5 construct: purchased Life Technologies (Invitrogen SelectScreen); Dyrk1A, Dyrk2 and CK2α in-house or gifts

Dyrk2 = target: T6, Dyrk2 (Homo sapiens, UniProt Q92630); assay: Dyrk2 kinase assay (32P-ATP, Woodtide); format: biochemical; conditions: for IC50: 100 µM ATP, read-out: IC50 Dyrk2; for inhibition at 5 µM: read-out: percentage of inhibition Dyrk2
T6 construct: made in house; host or cells: Escherichia coli BL21(DE3) with pRARE; plasmid pGEX-2TK-Dyrk2 (gift from W. Becker, Aachen)
T6 sequence (Q92630 1-601): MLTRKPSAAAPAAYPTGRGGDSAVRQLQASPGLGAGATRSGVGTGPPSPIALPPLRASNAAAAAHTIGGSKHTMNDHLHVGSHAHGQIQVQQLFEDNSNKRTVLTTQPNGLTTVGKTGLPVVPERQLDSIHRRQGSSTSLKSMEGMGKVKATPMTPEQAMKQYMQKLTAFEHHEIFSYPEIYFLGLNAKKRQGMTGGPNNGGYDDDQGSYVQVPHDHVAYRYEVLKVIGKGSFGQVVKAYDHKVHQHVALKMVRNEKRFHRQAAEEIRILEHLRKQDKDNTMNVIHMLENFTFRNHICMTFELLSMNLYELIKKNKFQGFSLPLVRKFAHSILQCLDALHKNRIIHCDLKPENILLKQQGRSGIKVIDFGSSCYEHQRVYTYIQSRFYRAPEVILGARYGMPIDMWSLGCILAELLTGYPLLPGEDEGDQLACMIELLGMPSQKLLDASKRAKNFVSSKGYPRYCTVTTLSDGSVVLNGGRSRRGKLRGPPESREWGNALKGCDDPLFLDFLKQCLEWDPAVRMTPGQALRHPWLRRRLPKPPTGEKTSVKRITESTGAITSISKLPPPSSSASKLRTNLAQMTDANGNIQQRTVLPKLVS

PRKD2 (PKD2) = target: T7, PRKD2 (PKD2) (Homo sapiens, UniProt Q9BZL6); assay: Selectivity panel PRKD2; format: biochemical; conditions: 5 µM inhibitor
T7 construct: purchased Life Technologies (Invitrogen SelectScreen); Dyrk1A, Dyrk2 and CK2α in-house or gifts
T7 sequence (Q9BZL6 1-878): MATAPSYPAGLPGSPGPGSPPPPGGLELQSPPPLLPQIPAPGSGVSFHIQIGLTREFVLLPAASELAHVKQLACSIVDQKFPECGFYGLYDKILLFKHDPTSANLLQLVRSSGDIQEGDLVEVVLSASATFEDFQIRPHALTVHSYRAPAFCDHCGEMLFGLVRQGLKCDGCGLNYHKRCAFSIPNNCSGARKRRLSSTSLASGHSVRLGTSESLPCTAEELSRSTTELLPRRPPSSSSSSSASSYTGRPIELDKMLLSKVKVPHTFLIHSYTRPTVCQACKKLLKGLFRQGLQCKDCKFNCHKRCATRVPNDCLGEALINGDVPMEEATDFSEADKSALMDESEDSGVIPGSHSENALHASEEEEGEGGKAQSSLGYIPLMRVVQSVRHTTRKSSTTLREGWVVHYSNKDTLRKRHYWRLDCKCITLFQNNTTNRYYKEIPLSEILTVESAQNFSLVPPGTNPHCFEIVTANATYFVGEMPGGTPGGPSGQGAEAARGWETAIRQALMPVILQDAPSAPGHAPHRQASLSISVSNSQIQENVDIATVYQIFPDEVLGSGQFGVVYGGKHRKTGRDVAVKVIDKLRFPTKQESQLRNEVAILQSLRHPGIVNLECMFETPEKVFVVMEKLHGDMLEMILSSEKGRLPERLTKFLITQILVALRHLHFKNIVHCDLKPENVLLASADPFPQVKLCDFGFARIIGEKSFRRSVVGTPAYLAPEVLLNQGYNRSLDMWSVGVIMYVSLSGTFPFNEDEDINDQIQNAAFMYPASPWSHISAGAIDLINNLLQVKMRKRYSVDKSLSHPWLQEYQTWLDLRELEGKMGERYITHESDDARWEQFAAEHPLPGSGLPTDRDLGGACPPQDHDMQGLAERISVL

[1] = Metabolic Stability Assay; conditions: male, Sprague-Dawley, rat, liver microsomes
MLK1 = target: T8, MLK1 (Homo sapiens, UniProt P80192); assay: Selectivity panel MLK1; format: biochemical; conditions: 5 µM inhibitor
T8 construct: purchased Life Technologies (Invitrogen SelectScreen); Dyrk1A, Dyrk2 and CK2α in-house or gifts

GSK3β = target: T9, GSK3β (Homo sapiens, UniProt P49841); assay: Selectivity panel GSK3β; format: biochemical; conditions: 5 µM inhibitor
T9 construct: purchased Life Technologies (Invitrogen SelectScreen); Dyrk1A, Dyrk2 and CK2α in-house or gifts

ROS = target: T10, ROS (Homo sapiens, UniProt P08922); assay: Selectivity panel ROS; format: biochemical; conditions: 5 µM inhibitor
T10 construct: purchased Life Technologies (Invitrogen SelectScreen); Dyrk1A, Dyrk2 and CK2α in-house or gifts

Ck1δ = target: T11, Ck1δ (Homo sapiens, UniProt P48730); assay: Selectivity panel Ck1δ; format: biochemical; conditions: 5 µM inhibitor
T11 construct: purchased Life Technologies (Invitrogen SelectScreen); Dyrk1A, Dyrk2 and CK2α in-house or gifts

Clk1 = Clk1 (Homo sapiens, UniProt P49759); assay: Clk1 kinase assay (RS repeat peptide); format: biochemical; conditions: for inhibition at 5 µM: read-out: % inhibition Clk1; for IC50: 100 µM ATP
Dyrk1A = target: T12, Dyrk1A (Homo sapiens, UniProt Q13627); assay: Dyrk1A kinase assay (32P-ATP, Woodtide); format: biochemical; conditions: for IC50: 100 µM ATP; for inhibition at 5 µM: read-out: percentage of inhibition Dyrk1A
T12 construct: encoding the catalytic domain of human Dyrk1A; thrombin cleavage site (N); made in house; host or cells: Escherichia coli BL21(DE3) with pRARE

T5 sequence (P49761 whole entry): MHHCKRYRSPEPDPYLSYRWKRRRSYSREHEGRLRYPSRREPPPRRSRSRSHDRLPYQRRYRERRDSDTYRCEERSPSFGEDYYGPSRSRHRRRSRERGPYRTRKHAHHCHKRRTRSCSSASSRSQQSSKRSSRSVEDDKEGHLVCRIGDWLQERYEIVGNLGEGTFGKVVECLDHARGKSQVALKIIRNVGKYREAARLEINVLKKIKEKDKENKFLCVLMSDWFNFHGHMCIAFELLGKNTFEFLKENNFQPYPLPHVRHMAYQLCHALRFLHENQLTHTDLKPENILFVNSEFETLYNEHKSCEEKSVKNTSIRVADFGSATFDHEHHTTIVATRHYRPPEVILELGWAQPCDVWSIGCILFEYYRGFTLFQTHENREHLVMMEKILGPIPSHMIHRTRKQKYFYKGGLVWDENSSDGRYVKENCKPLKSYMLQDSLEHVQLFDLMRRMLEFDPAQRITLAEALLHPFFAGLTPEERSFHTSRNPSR
T10 sequence (P08922 28-2347): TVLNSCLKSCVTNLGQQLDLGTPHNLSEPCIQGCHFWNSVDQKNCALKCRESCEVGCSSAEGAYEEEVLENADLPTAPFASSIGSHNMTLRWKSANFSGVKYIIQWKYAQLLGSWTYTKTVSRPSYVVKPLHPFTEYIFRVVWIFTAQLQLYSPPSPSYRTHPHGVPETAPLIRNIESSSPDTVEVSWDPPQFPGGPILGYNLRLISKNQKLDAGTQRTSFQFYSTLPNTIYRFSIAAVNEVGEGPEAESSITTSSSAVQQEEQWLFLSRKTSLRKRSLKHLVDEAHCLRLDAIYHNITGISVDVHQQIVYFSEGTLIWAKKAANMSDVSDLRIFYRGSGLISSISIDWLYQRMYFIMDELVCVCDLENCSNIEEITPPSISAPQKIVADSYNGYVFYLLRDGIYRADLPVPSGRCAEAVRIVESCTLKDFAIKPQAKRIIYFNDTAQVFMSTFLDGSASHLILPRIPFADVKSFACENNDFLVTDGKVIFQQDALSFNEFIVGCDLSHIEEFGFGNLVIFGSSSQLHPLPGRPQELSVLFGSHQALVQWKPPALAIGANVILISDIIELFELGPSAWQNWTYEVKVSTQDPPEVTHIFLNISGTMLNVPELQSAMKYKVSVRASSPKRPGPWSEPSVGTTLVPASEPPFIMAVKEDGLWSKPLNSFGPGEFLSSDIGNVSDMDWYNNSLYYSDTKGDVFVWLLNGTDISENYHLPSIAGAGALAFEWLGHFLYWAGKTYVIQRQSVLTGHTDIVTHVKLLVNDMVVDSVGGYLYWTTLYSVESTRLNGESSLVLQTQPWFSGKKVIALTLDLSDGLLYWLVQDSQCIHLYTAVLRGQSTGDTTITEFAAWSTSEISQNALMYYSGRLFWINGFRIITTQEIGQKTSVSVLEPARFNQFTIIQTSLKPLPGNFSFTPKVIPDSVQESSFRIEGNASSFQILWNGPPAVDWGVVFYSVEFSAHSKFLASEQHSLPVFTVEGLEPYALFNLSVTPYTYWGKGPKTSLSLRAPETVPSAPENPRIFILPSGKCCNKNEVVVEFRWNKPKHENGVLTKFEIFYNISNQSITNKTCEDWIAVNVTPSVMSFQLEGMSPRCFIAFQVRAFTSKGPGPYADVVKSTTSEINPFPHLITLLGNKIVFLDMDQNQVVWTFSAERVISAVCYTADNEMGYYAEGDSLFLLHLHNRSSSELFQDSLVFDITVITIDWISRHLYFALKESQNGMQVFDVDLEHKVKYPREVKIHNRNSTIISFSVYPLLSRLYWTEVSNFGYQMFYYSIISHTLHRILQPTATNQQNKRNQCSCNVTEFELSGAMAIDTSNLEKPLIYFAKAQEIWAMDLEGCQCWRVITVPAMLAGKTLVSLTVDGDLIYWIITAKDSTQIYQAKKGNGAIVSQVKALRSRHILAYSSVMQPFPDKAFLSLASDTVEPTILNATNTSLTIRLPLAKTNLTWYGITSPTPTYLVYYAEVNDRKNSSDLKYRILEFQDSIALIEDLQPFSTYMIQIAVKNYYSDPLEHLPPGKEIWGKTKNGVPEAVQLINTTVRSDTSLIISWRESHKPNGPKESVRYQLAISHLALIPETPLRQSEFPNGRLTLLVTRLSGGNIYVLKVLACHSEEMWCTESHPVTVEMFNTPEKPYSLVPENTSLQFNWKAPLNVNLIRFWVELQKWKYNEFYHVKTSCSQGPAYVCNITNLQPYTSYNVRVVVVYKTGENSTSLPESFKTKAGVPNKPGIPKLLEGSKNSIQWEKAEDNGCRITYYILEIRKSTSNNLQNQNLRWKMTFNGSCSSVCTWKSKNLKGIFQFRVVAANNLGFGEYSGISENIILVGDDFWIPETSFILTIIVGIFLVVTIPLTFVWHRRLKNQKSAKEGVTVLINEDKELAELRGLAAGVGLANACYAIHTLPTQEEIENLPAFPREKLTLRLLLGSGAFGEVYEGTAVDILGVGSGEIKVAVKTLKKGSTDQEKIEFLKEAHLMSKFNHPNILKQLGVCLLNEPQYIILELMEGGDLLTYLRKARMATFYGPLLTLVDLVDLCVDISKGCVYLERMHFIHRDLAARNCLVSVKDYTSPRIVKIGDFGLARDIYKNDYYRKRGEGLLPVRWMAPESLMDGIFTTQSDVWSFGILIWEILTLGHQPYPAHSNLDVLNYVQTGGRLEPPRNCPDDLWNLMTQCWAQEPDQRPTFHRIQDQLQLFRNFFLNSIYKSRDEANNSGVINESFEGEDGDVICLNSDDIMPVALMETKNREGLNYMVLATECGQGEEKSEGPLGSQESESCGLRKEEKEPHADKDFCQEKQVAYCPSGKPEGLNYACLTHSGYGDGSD
T3 sequence (Q14012 whole entry): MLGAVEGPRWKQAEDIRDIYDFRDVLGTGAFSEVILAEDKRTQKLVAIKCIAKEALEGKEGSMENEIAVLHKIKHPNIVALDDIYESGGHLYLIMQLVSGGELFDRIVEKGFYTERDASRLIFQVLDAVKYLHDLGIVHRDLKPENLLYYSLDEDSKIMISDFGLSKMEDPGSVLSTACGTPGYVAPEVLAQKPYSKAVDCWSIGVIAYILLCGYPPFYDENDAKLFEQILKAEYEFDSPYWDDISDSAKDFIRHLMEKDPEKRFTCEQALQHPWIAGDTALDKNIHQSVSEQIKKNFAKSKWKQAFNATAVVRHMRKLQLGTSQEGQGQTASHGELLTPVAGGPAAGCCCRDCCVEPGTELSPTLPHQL
T4 sequence (P05771 whole entry): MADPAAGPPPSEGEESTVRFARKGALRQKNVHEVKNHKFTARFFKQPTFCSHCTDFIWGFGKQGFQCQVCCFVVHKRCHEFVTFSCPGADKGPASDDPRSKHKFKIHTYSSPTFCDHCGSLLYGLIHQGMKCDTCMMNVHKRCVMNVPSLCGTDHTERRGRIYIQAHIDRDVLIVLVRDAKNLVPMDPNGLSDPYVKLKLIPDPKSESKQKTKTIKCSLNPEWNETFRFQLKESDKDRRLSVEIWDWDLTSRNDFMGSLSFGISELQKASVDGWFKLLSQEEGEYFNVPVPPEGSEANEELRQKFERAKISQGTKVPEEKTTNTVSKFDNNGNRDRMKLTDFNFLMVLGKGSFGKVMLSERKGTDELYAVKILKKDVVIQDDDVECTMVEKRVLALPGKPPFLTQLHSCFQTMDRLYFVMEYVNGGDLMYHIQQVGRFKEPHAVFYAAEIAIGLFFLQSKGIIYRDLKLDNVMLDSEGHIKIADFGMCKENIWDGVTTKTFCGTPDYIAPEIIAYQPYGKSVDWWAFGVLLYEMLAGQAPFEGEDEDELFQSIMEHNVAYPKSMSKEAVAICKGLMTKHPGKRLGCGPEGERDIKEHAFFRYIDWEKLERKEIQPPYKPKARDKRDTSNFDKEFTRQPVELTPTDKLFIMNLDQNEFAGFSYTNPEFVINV
T9 sequence (P49841 whole entry): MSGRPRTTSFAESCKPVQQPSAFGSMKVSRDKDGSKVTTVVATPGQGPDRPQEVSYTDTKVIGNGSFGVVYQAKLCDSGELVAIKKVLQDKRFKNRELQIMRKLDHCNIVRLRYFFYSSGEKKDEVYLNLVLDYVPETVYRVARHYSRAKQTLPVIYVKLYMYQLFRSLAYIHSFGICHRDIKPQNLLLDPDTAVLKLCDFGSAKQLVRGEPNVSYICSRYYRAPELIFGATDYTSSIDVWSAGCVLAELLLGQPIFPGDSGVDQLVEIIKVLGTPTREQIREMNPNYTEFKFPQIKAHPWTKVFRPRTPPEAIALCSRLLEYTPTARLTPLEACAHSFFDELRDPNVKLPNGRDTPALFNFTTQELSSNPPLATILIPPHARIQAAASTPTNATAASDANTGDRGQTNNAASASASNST
T11 sequence (P48730 whole entry): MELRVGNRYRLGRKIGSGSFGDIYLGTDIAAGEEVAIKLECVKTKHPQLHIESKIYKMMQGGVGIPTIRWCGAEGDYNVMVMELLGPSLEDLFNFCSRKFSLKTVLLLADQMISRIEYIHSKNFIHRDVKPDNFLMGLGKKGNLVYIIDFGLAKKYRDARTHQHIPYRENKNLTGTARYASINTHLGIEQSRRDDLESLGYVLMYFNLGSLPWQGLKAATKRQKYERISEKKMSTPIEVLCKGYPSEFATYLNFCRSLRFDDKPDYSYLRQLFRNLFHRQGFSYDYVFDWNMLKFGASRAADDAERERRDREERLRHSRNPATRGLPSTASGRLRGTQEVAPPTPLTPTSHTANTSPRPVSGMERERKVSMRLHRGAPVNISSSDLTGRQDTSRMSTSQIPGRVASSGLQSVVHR

SMILES	inhibition at 5 µM (HIPK1) [%]	inhibition at 5 µM (MST1 (STK4)) [%]	inhibition at 5 µM (CaMK1) [%]	inhibition at 5 µM (PKCβ) [%]	melting point [°C]	inhibition at 5 µM (Clk3) [%]	IC50 (Dyrk2)	inhibition at 5 µM (Dyrk2) [%]	inhibition at 5 µM (PRKD2 (PKD2)) [%]	CLhep predicted at 0.5 µM [1] [mL/min/kg]	half-life at 0.5 µM [1] [min]	inhibition at 5 µM (MLK1) [%]	inhibition at 5 µM (GSK3β) [%]	inhibition at 5 µM (ROS) [%]	inhibition at 5 µM (Ck1δ) [%]	IC50 (Dyrk1A)	inhibition at 5 µM (Dyrk1A) [%]	IC50 (Clk1) [nM]	inhibition at 5 µM (Clk1; at 5 µM) [%]	other results
c1cncc(-c2cc(-c3cncs3)cs2)c1 [Compound 29, 3-[4-(1,3-thiazol-5-yl)thiophen-2-yl]pyridine]	4	0	8	-7	114 to 115	12	400 nM and 430 nM	93	0	49	27	15	0	0	0	–	–	–	–	inhibition at 5 µM (Clk1): 96%
c1cncc(-c2csc(-c3cncs3)c2)c1 [Compound 48, 3-[5-(1,3-thiazol-5-yl)thiophen-3-yl]pyridine]	9	9	5	1	69 to 70	31	40 nM	100	0	47	31	17	25	0	1	100 nM	97	110	94	Kd (Dyrk1A; calculated with Cheng-Prussoff equation, KM ATP 64 µM): 39 nM
c1cncc(-c2csc(-c3cnco3)c2)c1 [Compound 33, 3-[5-(1,3-oxazol-5-yl)thiophen-3-yl]pyridine]	7	0	12	-18	86 to 87	5	1340 nM and 1300 nM	77	0	–	–	0	10	2	0	800 nM and 810 nM	84	420	88	–
c1cncc(-c2csc(-c3cncnc3)c2)c1 [Compound 41, 5-[4-(pyridin-3-yl)thiophen-2-yl]pyrimidine]	9	2	0	-7	173 to 174	5	3500 nM and 3400 nM	57	0	–	–	3	14	0	0	900 nM and 880 nM	85	610	86	–
Cn1cc(-c2csc(-c3cccnc3)c2)cn1 [Compound 30, 3-[4-(1-methyl-1H-pyrazol-4-yl)thiophen-2-yl]pyridine]	8	-10	17	-8	119 to 120	17	200 nM and 190 nM	100	-8	34	53	16	17	4	-1	–	–	160	92	–
